From EPA's ToxValDB 9.5 (doi:10.2903/j.efsa.2014.3814)
Values after ≈ are worked out from the molar mass of the structure shown.

Key:
[1] = test system: Typhlodromus pyri; test: LR50; higher = less toxic; conditions: not reported; mortality
[2] = test system: Aphidius rhopalosiphi; test: LR50; higher = less toxic; conditions: not reported; mortality
[3] = test system: Lepomis macrochirus; conditions: acute; duration: 96 hours; mortality
[4] = test system: Bibionidae; conditions: chronic/long-term; duration: 28 days
[5] = test system: Pimephales promelas; conditions: chronic/long-term; duration: 33 days; growth
[6] = test system: Canidae; conditions: chronic; duration: 1 years; oral; Dog Other; organ weight
[7] = test system: Pontoscolex corethrurus
[8] = test system: Rattus norvegicus
[9] = test system: Folsomia candida; conditions: chronic/long-term; duration: 28 days
[10] = test system: Colinus virginianus
[11] = test system: Ictalurus punctatus; conditions: acute; duration: 96 hours; mortality
[12] = test system: Oryctolagus sp.; conditions: reproduction developmental; body weight
[13] = test system: Apis mellifera; conditions: acute, mortality
[14] = test system: Hypoaspis aculeifer; conditions: chronic/long-term; duration: 14 days

Compound: CNC(=O)c1cc(C#N)cc(C)c1NC(=O)c1cc(Br)nn1-c1ncccc1Cl [Cyantraniliprole]
- LR50 [1]: > 230 g/ha
- LR50 [2]: 0.102 g/ha
- LC50 [3]: 2.4 µg/mL (≈ 5.07 µM)
- NOEC [4]: 0.01 mg/L
- NOEC [5]: 2.9 mg/L
- NOAEL [6]: 1 mg/kg-day
- LC50 ([7]; acute, duration: 14 days, mortality): > 1000 mg/kg
- NOEC ([7]; chronic/long-term, duration: 56 days): > 1000 mg/kg
- LD50 ([8]; acute, oral, mortality): > 5000 mg/kg
- NOAEL ([8]; reproduction developmental, organ weight): 1.2 mg/kg-day
- NOEC [9]: 0.08 mg/kg
- LD50 ([10]; acute, oral): > 2250 mg/kg
- LC50 ([10]; acute, oral, diet): > 1340 mg/kg
- NOAEL ([10]; reproduction developmental): 93.2 mg/kg-day
- LC50 [11]: > 10 µg/mL
- NOAEL [12]: 25 mg/kg-day
- LD50 ([13]; dermal): > 0.0934 µg/piece
- LD50 ([13]; oral, unspecified): > 0.105 µg/piece
- NOEC [14]: 1000 mg/kg
